{"source": "patent US20130303564A1", "about": "“METHOD FOR TREATING A NEURODEGENERATIVE DISORDER” (RUSH UNIVERSITY MEDICAL CENTER, priority 2012, published 2013)", "key": {"[1]": {"test_system": "iNOS", "method": "Primary mouse microglia were treated with different concentrations of NaPB for 6 h followed by stimulation with LPS under serum-free condition. After 24 h of stimulation, concentrations of nitrite were measured in supernatants (A) and the level of iNOS protein was monitored in cells by Western blot (B). […] After 5 h of stimulation, the expression of iNOS mRNA was monitored by semi-quantitative RT-PCR (C). Cells preinctibated with different concentration of trichostatin A (TSA) and sodium butyrate (NaBu) for 6 h were stimulated with LPS for 24 h under serum-free condition followed by monitoring the level of nitrite in supernatants (p). […] Primary human astroglia isolated from fetal brain tissues were treated with different concentrations of NaPB for 6 h followed by stimulation with IL-1β under serum-free condition. After 48 h of stimulation, concentrations of nitrite (E) were measured in supernatants. Human astroglia plated at 70-80% confluence in 12-well plates were co-transfected with 0.25 μg of phiNOS(7.2)Luc and 12.5 ng of pRL-TK using the Lipofectamine-Plus (Invitrogen). Twenty-four h after transfection, cells received NaPB. After 6 h of incubation, cells were stimulated with IL-1β (20 ng/ml) for 12 h. Firefly (ff-Luc) and Renilla (r-Luc) luciferase activities were obtained by analyzing the total cell extract (F). […]"}, "[2]": {"test_system": "NF-κB", "experiment": "DNA-binding activity of NF-κB by EMSA in BV-2 microglial cells", "type": "cell-based, mouse", "conditions": "NaPB different concentrations, 6 h preincubation, LPS 1 h", "experimental": "Activation of NF-κB was monitored by IκBαphosphorylation, DNA binding activity by EMSA and transcriptional activity by reporter assays.\nElectrophoretic Mobility Shift Assay (EMSA): Nuclear extracts were prepared and EMSA was carried out. […] Six-micrograms of nuclear extract was incubated with binding buffer and with IR-labeled probe for 20 min. Subsequently, samples were separated on a 6% polyacrylamide gel in 0.25× TBE buffer (Tris borate-EDTA) and analyzed by Odyssey Infrared Imaging System (LI-COR Biosciences)."}, "[3]": {"test_system": "BV-2 microglial cells", "experiment": "Superoxide production in microglial cells", "type": "cell-based, mouse", "conditions": "500 μM", "from_the_text": "Results represent three independent experiments.\nSuperoxide measurements: Superoxide production was detected by LumiMax™ Superoxide Anion Detection Kit (Stratagene) as described by us (30)."}, "[4]": {"test_system": "CD11b", "method": "(§1) A) Mice were treated with NaPB (200 mg/kg body wt/d) from 3 h after the last injection of MPTP. Twenty-four h after the last injection of MPTP, ventral midbrain sections were immunostained for GFAP and CD11b. Results represent analyses of four nigral sections (two images per slide) from each of four mice. The mRNA expression GFAP and CD11b was analyzed by semi-quantitative RT-PCR (B) and quantitative real-time PCR (C).\n(§2) Recently activation of glial cells is being considered as a pathological hallmark in PD and other neurodegenerative disorders. Increased expression of CD11b, the beta-integrin marker of microglia, represents microglial activation during neurodegenerative inflammation. Similarly, upon activation, astrocytes also express enhanced level of GFAP, which is considered as a marker protein for astrogliosis. We investigated if NaPB could attenuate MPTP-induced activation of glial cells in vivo in the nigra of mice.\n(§3) Semi-quantitative RT-PCR analysis for proinflammatory molecules (iNOS, IL-1β and TNF-α) and glial cell markers: Total RNA was isolated from ventral midbrain using Ultraspec-II RNA reagent (Biotecx .Laboratories, Inc., Houston, Tex.) following manufacturer's protocol. To remove any contaminating genomic DNA, total RNA was digested with DNase. RT-PCR was carried out using a RT-PCR kit (Clontech., Mountain View, Calif.) and following primers.\n(§4) Real-time PCR analysis: It was performed in the ABI-Prism7700 sequence detection system (Applied Biosystems, Foster City, Calif.) using TaqMan Universal Master mix and optimized concentrations of FAM-labeled probes and primers."}, "[5]": {"test_system": "GFAP", "method": "as §1, §2, §3, §4"}, "[6]": {"test_system": "MPTP-intoxicated mice", "experiment": "Locomotor and open-field activities in acute MPTP-intoxicated mice", "type": "in vivo, mouse", "conditions": "NaPB 200 mg/kg body wt/day from 3 h after last MPTP; 7 d", "method": "Mice receiving FTI, GGTI or the combination of the two via daily intraperitoneal injection from 3h after the last injection of MPTP were tested for motor functions (B, horizontal activity; C, total distance; D, number of movement; E, stereotypy) 7 d after the last injection of MPTP followed by measuring DA in striatum (A).\nThe ultimate therapeutic goal of neuroprotection is to decrease functional impairment. Therefore, to examine whether NaPB protects not only against structural and neurotransmitter damage but also against functional deficits caused by MPTP, we monitored locomotor and open-field activities. MPTP injection caused marked decrease in rotorod performance (FIG. 15A), movement time (FIG. 15B), total distance (FIG. 15C), stereotypy (FIG. 15E), rearing (FIG. 15F), and horizontal activity (FIG. 15G). On the other hand, MPTP increased the rest time (FIG. 15D).\nTherefore, we investigated if inhibition of either p21^ras or p21^rac alone was sufficient for the protection of the nigrostriatum. MPTP-intoxicated mice received FTI and GGTI, either separately at 10 mg/kg body wt/d or together at 5 mg/kg body wt/d, via i.p. injection from 3 h after the last injection of MPTP. […]\nBehavioral analyses: Two types of behavioral experiments were conducted. […] Locomotor activity measures were assessed after baseline value comparison."}, "[7]": {"test_system": "BV-2 microglial cells", "conditions": "500 μM, 6 h, 1 μM MPP+ 15 min", "experimental": "Cells were treated with 500 μM NaPB for 6 h followed by stimulation with 1 μM MPP+. At 15 min of stimulation, the generation of ROS was monitored by carboxy-H2DCFDA (A).\nWe examined if Parkinsonian toxin MPP+ induced the production of ROS from microglia and if NaPB could attenuate such ROS production. To monitor the generation of intracellular ROS in BV-2 microglial cells, we used a cell-permeant fluorescent probe.\nMonitoring microglial ROS production: Cells, cultured in 8-well chamber slides, were treated with MPP+ under serum-free condition. At different time points of stimulation, supernatants were removed and cells were washed with Hank's buffered salt solution (HBSS) followed by addition of 100 μl of 25 μM carboxy-H2DCFDA to each well for 30 min of incubation. During the last five minutes of incubation, Hoechst 33342 was added to each well at a dilution of 1:1000 for staining nuclei. Cells were then washed with HBSS, mounted with DPX mounting media and observed under an Olympus 1×81 fluorescent microscope."}, "[8]": {"test_system": "NF-κB p65", "conditions": "200 mg/kg body wt/day gavage from 3 h after last MPTP; 24 h after last MPTP", "text": "Twenty-four h after the last injection of MPTP, ventral midbrain sections were immunostained for p65 (low magnification). Midbrain sections of MPTP-intoxicated mice were also double-labeled for p65 and glial cell markers (GFAP for astrocytes and CD11b for microglia). Results represent three independent experiments. D) NF-κB p65 positive cells counted in four nigral sections (two images per slide) from each of four mice in an Olympus IX81 fluorescence microscope using the MicroSuite™ imaging software are mentioned as cells/mm2. ^ap<0.0001 vs saline-control; ^bp<0.0001 vs MPTP.\nNext, mice were treated with NaPB (200 mg/kg body wt/day) via gavage from 3 h after the last injection of MPTP and the activation of NF-κB was examined 24 h after the last injection of MPTP.\nFor acute MPTP intoxication, mice received four intraperitoneal (i.p.) injections of MPTP-HCl (18 mg/kg of free base; Sigma Chemical Co., St. Louis, Mo.) in saline at 2 hr intervals. Control animals received only saline.\nFor immunofluorescence staining on fresh frozen sections, rat anti-mouse CD11b (1:100), goat anti-mouse GFAP (1:100), rabbit anti NF-κB p65 (1:100), goat anti-NF-κB p65 (1:100), rabbit anti NF-κB p50 (1:100), and rabbit anti-mouse iNOS (1:250) were used. The samples were mounted and observed under a Bio-Rad MRC1024ES confocal laser scanning microscope."}, "[9]": {"conditions": "200 mg/kg body wt/d from 3 h after last MPTP, RT-PCR, real-time PCR"}, "[10]": {"conditions": "200 mg/kg body wt/d oral from 3 h after last MPTP, 24 h, immunofluorescence"}}}
{"substance": "sodium phenylbutyrate [NaPB]", "values": [{"measurement": "LPS-induced mRNA expression of iNOS", "setting": "[1]; RT-PCR, 5 h LPS", "value": "dose-dependently inhibited"}, {"measurement": "LPS-induced protein expression of iNOS", "setting": "[1]; Western blot, 24 h LPS", "value": "dose-dependently inhibited"}, {"measurement": "LPS-induced DNA-binding activity of NF-κB", "setting": "[2]", "value": "inhibited"}, {"measurement": "MPP+-induced production of superoxide", "setting": "[3]; 6 h, 1 μM MPP+", "value": "attenuated"}, {"measurement": "LPS-, TNF-α-, IL-1β-, gp120-, and Aβ-induced production of superoxide", "setting": "[3]; 6 h preincubation, 10 min stimulation", "value": "knocked down"}, {"measurement": "MPTP-induced mRNA expression of CD11b in the nigra", "setting": "[4]; [9]", "value": "suppressed"}, {"measurement": "CD11b protein expression in the nigra", "setting": "[4]; [10]", "value": "inhibition"}, {"measurement": "MPTP-induced mRNA expression of GFAP in the nigra", "setting": "[5]; [9]", "value": "suppressed"}, {"measurement": "GFAP protein expression in the nigra", "setting": "[5]; [10]", "value": "inhibition"}, {"measurement": "MPTP-induced hypolocomotion (rotorod, movement time, total distance, rest time, stereotypy, rearing, horizontal activity)", "setting": "[6]", "value": "significantly improved"}, {"measurement": "MPP+-induced production of intracellular ROS", "setting": "[7]", "value": "strongly inhibited"}, {"measurement": "level of p65 in the SNpc", "setting": "[8]", "value": "markedly inhibited"}]}
